Measurements from article PMC12361428 (Nature Communications, 2025).
Values joined by “and” are separate entries in the source; they are usually repeats but may differ in a detail not shown here. Identical values can stand only once.

Tests used:
[1] = target: T1, Nluc-A3AR Y265A^7.36 (Homo sapiens, UniProt P0DMS8, Y265A); experiment: biochemical; format: binding
T1 construct: expressed in transfected cells; host or cells: HEK293a
Procedure: (§1) All experiments were performed in duplicate.
(§2) Data were expressed as the mean ± standard error. All binding and Trupath data were analysed using the nonlinear regression curve-fitting programme with Prism 10 (GraphPad, San Diego, CA, USA). For nanoBRET saturation binding experiments, specific binding was calculated by subtracting non-specific binding (defined as binding in the presence of 10 µM MRS1220) from total binding. Specific binding data in each experiment were then normalised to the maximal binding (Bmax) of WT and fit to a one-site specific binding equation: Y =Bmax*[X]/(Kd + [X]). For nanoBRET competition binding experiments, data were normalised to total and non-specific binding responses and fit to a one-site—Fit Ki equation. Trupath's experimental data was baseline-corrected to the initial four baseline reads and then adjusted to the buffer control response. The area under the curve (AUC) for each response was calculated and plotted with a non-linear regression curve (log[agonist] vs response, three-parameter model), using the equation: Y = Bottom + (Top–Bottom)/(1 + 10^((LogEC50-X))). Here, X represents the log dose of the agonist, Y is the BRET2 AUC response, Top and Bottom are the curve plateaus, and EC50 is the agonist concentration yielding a response halfway between the Bottom and Top values. […] The efficacy of the agonists (τA) was separately calculated using the Black–Leff operational model of agonism[79] using KA values from Table 2 and then corrected for receptor expression relative to WT using Bmax values from Table 1[80]. Significant differences vs WT were determined by one-way ANOVA with a Dunnett’s multiple comparison test.

[2] = target: T2, Nluc-A3AR S271A^7.42 (Homo sapiens, UniProt P0DMS8, S271A); experiment: biochemical; format: binding
T2 construct: expressed in transfected cells; host or cells: HEK293a
T2 sequence (P0DMS8 whole entry S271A): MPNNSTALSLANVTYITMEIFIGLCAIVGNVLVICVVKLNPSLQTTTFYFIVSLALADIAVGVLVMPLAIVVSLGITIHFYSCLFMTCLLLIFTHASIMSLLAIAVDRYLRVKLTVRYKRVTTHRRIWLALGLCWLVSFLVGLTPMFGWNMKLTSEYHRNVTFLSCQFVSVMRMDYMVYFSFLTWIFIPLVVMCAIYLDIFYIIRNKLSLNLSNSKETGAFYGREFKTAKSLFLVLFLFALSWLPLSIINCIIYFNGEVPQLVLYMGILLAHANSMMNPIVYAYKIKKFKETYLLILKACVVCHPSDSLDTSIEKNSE
Procedure: as §1
(§3) Data were expressed as the mean ± standard error. All binding and Trupath data were analysed using the nonlinear regression curve-fitting programme with Prism 10 (GraphPad, San Diego, CA, USA). For nanoBRET saturation binding experiments, specific binding was calculated by subtracting non-specific binding (defined as binding in the presence of 10 µM MRS1220) from total binding. Specific binding data in each experiment were then normalised to the maximal binding (Bmax) of WT and fit to a one-site specific binding equation: Y =Bmax*[X]/(Kd + [X]). For nanoBRET competition binding experiments, data were normalised to total and non-specific binding responses and fit to a one-site—Fit Ki equation. […] Significant differences vs WT were determined by one-way ANOVA with a Dunnett’s multiple comparison test.

[3] = target: T3, Nluc-A3AR H95A^3.37 (Homo sapiens, UniProt P0DMS8, H95A); experiment: biochemical; format: binding
T3 construct: expressed in transfected cells; host or cells: HEK293a
T3 sequence (P0DMS8 whole entry H95A): as the sequence (P0DMS8 whole entry S271A) above, with H95A, A271S counted along it
Procedure: as §1
(§4) Data were expressed as the mean ± standard error. All binding and Trupath data were analysed using the nonlinear regression curve-fitting programme with Prism 10 (GraphPad, San Diego, CA, USA). For nanoBRET saturation binding experiments, specific binding was calculated by subtracting non-specific binding (defined as binding in the presence of 10 µM MRS1220) from total binding. Specific binding data in each experiment were then normalised to the maximal binding (Bmax) of WT and fit to a one-site specific binding equation: Y =Bmax*[X]/(Kd + [X]). For nanoBRET competition binding experiments, data were normalised to total and non-specific binding responses and fit to a one-site—Fit Ki equation. Trupath's experimental data was baseline-corrected to the initial four baseline reads and then adjusted to the buffer control response. The area under the curve (AUC) for each response was calculated and plotted with a non-linear regression curve (log[agonist] vs response, three-parameter model), using the equation: Y = Bottom + (Top–Bottom)/(1 + 10^((LogEC50-X))). Here, X represents the log dose of the agonist, Y is the BRET2 AUC response, Top and Bottom are the curve plateaus, and EC50 is the agonist concentration yielding a response halfway between the Bottom and Top values. […] Significant differences vs WT were determined by one-way ANOVA with a Dunnett’s multiple comparison test. Significance levels are indicated as follows: P ≤ 0.0001****, P = 0.0001–0.001***, P = 0.001–0.01**, and P = 0.01–0.05*.

[4] = target: T4, Nluc-A3AR H95F^3.37 (Homo sapiens, UniProt P0DMS8, H95F); experiment: biochemical; format: binding
T4 construct: expressed in transfected cells; host or cells: HEK293a
T4 sequence (P0DMS8 whole entry H95F): as the sequence (P0DMS8 whole entry S271A) above, with H95F, A271S counted along it
Procedure: as §1, §4

[5] = target: T5, Nluc-A3AR T94A^3.36 (Homo sapiens, UniProt P0DMS8, T94A); experiment: biochemical; format: binding
T5 construct: expressed in transfected cells; host or cells: HEK293a
T5 sequence (P0DMS8 whole entry T94A): as the sequence (P0DMS8 whole entry S271A) above, with T94A, A271S counted along it
Procedure: as §1, §2

[6] = target: T6, Nluc-A3AR WT (Homo sapiens, UniProt P0DMS8); experiment: biochemical; format: binding
T6 construct: expressed in transfected cells; host or cells: HEK293a
Procedure: as §1, §3

[7] = target: T7, A3AR-BRIL (Homo sapiens, UniProt P0DMS8); experiment: NanoBRET competition binding vs XAC-630; settings: for XAC-630 NanoBRET binding, normalised (Figure S2H), individual replicates: A3AR-BRIL
T7 sequence (P0DMS8 1-318): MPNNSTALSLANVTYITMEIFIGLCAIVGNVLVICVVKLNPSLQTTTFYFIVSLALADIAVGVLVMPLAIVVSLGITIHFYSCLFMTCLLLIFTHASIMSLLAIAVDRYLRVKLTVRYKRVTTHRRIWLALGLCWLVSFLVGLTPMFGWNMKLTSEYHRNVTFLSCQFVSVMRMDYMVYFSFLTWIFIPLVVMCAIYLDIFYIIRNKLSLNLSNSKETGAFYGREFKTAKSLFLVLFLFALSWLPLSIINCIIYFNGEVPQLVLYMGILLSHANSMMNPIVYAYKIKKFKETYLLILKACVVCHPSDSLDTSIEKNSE
Procedure: as §1, §3

[8] = target: T8, Nluc-A3AR V169E^45.53 (Homo sapiens, UniProt P0DMS8, V169E); experiment: biochemical; format: binding
T8 construct: expressed in transfected cells; host or cells: HEK293a
T8 sequence (P0DMS8 whole entry V169E): as the sequence (P0DMS8 whole entry S271A) above, with V169E, A271S counted along it
Procedure: as §1, §4

[9] = target: T9, Nluc-A3AR S73A^2.65 (Homo sapiens, UniProt P0DMS8, S73A); experiment: biochemical; format: binding
T9 construct: expressed in transfected cells; host or cells: HEK293a
T9 sequence (P0DMS8 whole entry S73A): as the sequence (P0DMS8 whole entry S271A) above, with S73A, A271S counted along it
Procedure: as §1, §3

[10] = target: T10, Nluc-A3AR M174A^5.35 (Homo sapiens, UniProt P0DMS8, M174A); experiment: biochemical; format: binding
T10 construct: expressed in transfected cells; host or cells: HEK293a
T10 sequence (P0DMS8 whole entry M174A): as the sequence (P0DMS8 whole entry S271A) above, with M174A, A271S counted along it
Procedure: as §1, §2

[11] = target: T11, Nluc-A3AR Y15A^1.35 (Homo sapiens, UniProt P0DMS8, Y15A); experiment: biochemical; format: binding
T11 construct: expressed in transfected cells; host or cells: HEK293a
T11 sequence (P0DMS8 whole entry Y15A): as the sequence (P0DMS8 whole entry S271A) above, with Y15A, A271S counted along it
Procedure: as §1, §2

T1 sequence (P0DMS8 whole entry Y265A): as the sequence (P0DMS8 whole entry S271A) above, with Y265A, A271S counted along it

`CCCn1c(=O)c2c(nc3cc(OC)ccn32)n(CCCCNC(=O)c2ccc(S(=O)(=O)F)cc2)c1=O` [LUF7602] was tested, and the pKi ([1]; Y265A) was 6.3 ± 0.07 (3), the “reduction of binding affinity vs WT” value ([1]; Y265A) was 15 fold and the “ΔpKi relative to WT” value ([1]; Y265A) was -1.2. For the same compound, the remaining activity at […] ([1]; read-out: normalised XAC-630 binding, Y265A, log[LUF7602] -9.5 M) was 100%, the “ΔpKi relative to WT” value ([2]; S271A) was 0.423 and the pKi ([2]; S271A, 40 nM XAC-630) was 7.9 ± 0.09 (3). The remaining activity at 60.26 pM ([2]; read-out: normalised XAC-630 binding, S271A, log[LUF7602] -10.22 M) was 100%, the remaining activity at 0.6026 µM ([2]; read-out: normalised XAC-630 binding, S271A, log[LUF7602] -[…]) was 5.71% and the pKi ([3]; H95A) was 6.2 ± 0.2 (3). For the same compound, the “reduction of binding affinity vs WT” value ([3]; H95A) was ~ 10 fold, the “ΔpKi relative to WT” value ([3]; H95A) was -1.328 and the remaining activity at 0.1 µM ([3]; read-out: normalised XAC-630 binding, H95A, log[LUF7602] -7 M) was 98.1%. The remaining activity at 0.01 µM ([3]; read-out: normalised XAC-630 binding, H95A, log[LUF7602] -8 M) was 113%, the remaining activity at 0.001 µM ([3]; read-out: normalised XAC-630 binding, H95A, log[LUF7602] -9 M) was 104% and the remaining activity at 0.0001 µM ([3]; read-out: normalised XAC-630 binding, H95A, log[LUF7602] -10 M) was 100%. The pKi ([4]; H95F) was 6.4 ± 0.09 (3), the “reduction of binding affinity vs WT” value ([4]; H95F) was ~ 10 fold and the “ΔpKi relative to WT” value ([4]; H95F) was -1.06. The remaining activity at 0.006026 µM ([4]; read-out: normalised XAC-630 binding, H95F, log[LUF7602] -8.22 M) was 88.8%, the remaining activity at 60.26 pM ([4]; read-out: normalised XAC-630 binding, H95F, log[LUF7602] -10.22 M) was 100% and the remaining activity at 0.6026 µM ([4]; read-out: normalised XAC-630 binding, H95F, log[LUF7602] -[…]) was 47%. For the same compound, the pKi ([5]; T94A) was 7.3 ± 0.05 (3), the “ΔpKi relative to WT” value ([5]; T94A) was -0.208 and the remaining activity at 0.06026 µM ([5]; read-out: normalised XAC-630 binding, T94A, log[LUF7602] -7.22 M) was 77.1%. The remaining activity at 0.006026 µM ([5]; read-out: normalised XAC-630 binding, T94A, log[LUF7602] -8.22 M) was 100%, the remaining activity at 0.0006026 µM ([5]; read-out: normalised XAC-630 binding, T94A, log[LUF7602] -9.22 M) was 87.2% and the remaining activity at 60.26 pM ([5]; read-out: normalised XAC-630 binding, T94A, log[LUF7602] -10.22 M) was 100%. The pKi ([6]; WT) was 7.5 ± 0.05 (4), the “ΔpKi relative to WT” value ([6]; WT) was 0 and the “pKi Mean (Figure S2H)” value ([6]; WT, n 3) was 7.306. The “XAC-630 NanoBRET binding, normalised (Figure S2H), individual replicates” value (from here on “XAC-630 NanoBRET binding, normalised”) ([6]; log LUF7602 -5, A3AR-WT) was 0, the normalised XAC-630 binding at 10 µM ([6]; read-out: XAC-630 NanoBRET binding, normalised (Figure S2H), individual replicates, log LUF7602 -5, A3AR-WT) was 0% and the normalised XAC-630 binding at 0.1 µM ([6]; read-out: XAC-630 NanoBRET binding, normalised (Figure S2H), individual replicates, log LUF7602 -7, A3AR-WT) was 59.3%. It also gave a normalised XAC-630 binding at 0.01 µM ([6]; read-out: XAC-630 NanoBRET binding, normalised (Figure S2H), individual replicates, log LUF7602 -8, A3AR-WT) of 78%, a normalised XAC-630 binding at 0.0001 µM ([6]; read-out: XAC-630 NanoBRET binding, normalised (Figure S2H), individual replicates, log LUF7602 -10, A3AR-WT) of 89.4% and a normalised XAC-630 binding at 0.06026 µM ([6]; read-out: normalised XAC-630 binding, WT, log[LUF7602] -7.22 M) of 69.6%. It also gave a normalised XAC-630 binding at 0.006026 µM ([6]; read-out: normalised XAC-630 binding, WT, log[LUF7602] -8.22 M) of 96.8%, a normalised XAC-630 binding at 0.0006026 µM ([6]; read-out: normalised XAC-630 binding, WT, log[LUF7602] -9.22 M) of 90.4% and a normalised XAC-630 binding at 60.26 pM ([6]; read-out: normalised XAC-630 binding, WT, log[LUF7602] -10.22 M) of 100%. For the same compound, the “pKi Mean (Figure S2H)” value ([7]; BRIL, n 3) was 6.94, the “XAC-630 NanoBRET binding, normalised” value ([7]; log LUF7602 -5) was 0 and the “XAC-630 NanoBRET binding, normalised” value ([7]; log LUF7602 -6) was 22.1463 and 17.4094 and 21.7431. The “XAC-630 NanoBRET binding, normalised” value ([7]; log LUF7602 -7) was 61.493 and 91.0533 and 82.952, the “XAC-630 NanoBRET binding, normalised” value ([7]; log LUF7602 -8) was 66.0931 and 109.671 and 102.784 and the “XAC-630 NanoBRET binding, normalised” value ([7]; log LUF7602 -9) was 71.5361 and 107.819 and 104.301. The “XAC-630 NanoBRET binding, normalised” value ([7]; log LUF7602 -10) was 72.9226 and 106.236 and 100.479, the pKi ([8]; V169E) was 7.2 ± 0.05 (3) and the “ΔpKi relative to WT” value ([8]; V169E) was -0.293. It also gave a remaining activity at 0.06026 µM ([8]; read-out: normalised XAC-630 binding, V169E, log[LUF7602] -7.22 M) of 87.5%, a remaining activity at 0.006026 µM ([8]; read-out: normalised XAC-630 binding, V169E, log[LUF7602] -8.22 M) of 97.5% and a remaining activity at 0.0006026 µM ([8]; read-out: normalised XAC-630 binding, V169E, log[LUF7602] -9.22 M) of 105%. The remaining activity at 60.26 pM ([8]; read-out: normalised XAC-630 binding, V169E, log[LUF7602] -10.22 M) was 100%, the remaining activity at 0.6026 µM ([8]; read-out: normalised XAC-630 binding, V169E, log[LUF7602] -[…]) was 17% and the pKi ([9]; S73A) was 7.2 ± 0.06 (3). The “ΔpKi relative to WT” value ([9]; S73A) was -0.31, the remaining activity at 0.06026 µM ([9]; read-out: normalised XAC-630 binding, S73A, log[LUF7602] -7.22 M) was 71.4% and the remaining activity at 0.006026 µM ([9]; read-out: normalised XAC-630 binding, S73A, log[LUF7602] -8.22 M) was 90.3%. It also gave a remaining activity at 0.0006026 µM ([9]; read-out: normalised XAC-630 binding, S73A, log[LUF7602] -9.22 M) of 91.8%, a remaining activity at 60.26 pM ([9]; read-out: normalised XAC-630 binding, S73A, log[LUF7602] -10.22 M) of 100% and a remaining activity at 0.6026 µM ([9]; read-out: normalised XAC-630 binding, S73A, log[LUF7602] -[…]) of 19.1%. The pKi ([10]; M174A) was 6.5 ± 0.09 (3), the “reduction of binding affinity vs WT” value ([10]; M174A) was 10 fold and the “ΔpKi relative to WT” value ([10]; M174A) was -0.957. For the same compound, the remaining activity at 0.06026 µM ([10]; read-out: normalised XAC-630 binding, M174A, log[LUF7602] -7.22 M) was 96.7%, the remaining activity at 0.0006026 µM ([10]; read-out: normalised XAC-630 binding, M174A, log[LUF7602] -9.22 M) was 112% and the remaining activity at 60.26 pM ([10]; read-out: normalised XAC-630 binding, M174A, log[LUF7602] -10.22 M) was 100%. The remaining activity at 0.6026 µM ([10]; read-out: normalised XAC-630 binding, M174A, log[LUF7602] -[…]) was 44.9%, the pKi ([11]; Y15A) was 6.6 ± 0.2 (4) and the “reduction of binding affinity vs WT” value ([11]; Y15A) was 10 fold. For the same compound, the “ΔpKi relative to WT” value ([11]; Y15A) was -0.882 and the remaining activity at 60.26 pM ([11]; read-out: normalised XAC-630 binding, Y15A, log[LUF7602] -10.22 M) was 100%.
